Results taken from the NIST ThermoML archive (doi:10.1021/je060107n).

Test: mn = molality of the nth substance listed, in mol/kg
Conditions: 101 kPa, Liquid; for viscosity: Capillary tube (Ostwald / Ubbelohde) method; for speed of sound: Linear variable-path acoustic interferometer; for mass density: Pycnometric method

CC(=O)[O-].CC(=O)[O-].[Mg+2] [magnesium acetate] + O
Conditions	mass density [kg/m3]	speed of sound [m/s]	viscosity [mPa·s]
273.15 K, m1 = 0.0414	–	1411.1	1.895
273.15 K, m1 = 0.0831	–	1421.7	1.974
273.15 K, m1 = 0.1671	–	1435.8	2.142
273.15 K, m1 = 0.4247	–	1486.1	2.763
273.15 K, m1 = 0.646	–	1523.6	3.52
273.15 K, m1 = 0.8751	–	1563.5	4.302
273.15 K, m1 = 1.106	–	1599.6	5.537
273.15 K, m1 = 1.354	–	1633.9	7.125
273.15 K, m1 = 1.608	–	1670.3	7.125
273.15 K, m1 = 1.866	–	1705.9	12.12
273.15 K, m1 = 2.134	–	1742.2	16.35
273.15 K, m1 = 2.411	–	1777.1	23.36
273.15 K, m1 = 2.622	–	1797.1	28.17
273.15 K, m1 = 3.043	–	1840.9	45.46
273.15 K, m1 = 3.437	–	1885.2	85.35
273.15 K, m1 = 3.819	–	1910.1	–
273.15 K, m1 = 4.001	–	–	167.7
273.15 K, m1 = 4.547	–	1953.7	–
273.15 K, m1 = 4.563	–	–	374.7
278.15 K, m1 = 0.0414	–	1433.9	1.603
278.15 K, m1 = 0.0831	–	1443.6	1.663
278.15 K, m1 = 0.1671	–	1458.6	1.805
278.15 K, m1 = 0.4247	–	1504.5	2.301
278.15 K, m1 = 0.646	–	1539.4	2.887
278.15 K, m1 = 0.8751	–	1571.6	3.533
278.15 K, m1 = 1.106	–	1611.8	4.511
278.15 K, m1 = 1.354	–	1644.1	5.709
278.15 K, m1 = 1.608	–	1679.6	5.709
278.15 K, m1 = 1.866	–	1713	9.522
278.15 K, m1 = 2.134	–	1746.8	12.57
278.15 K, m1 = 2.411	–	1780.1	17.59
278.15 K, m1 = 2.622	–	1799.2	21.2
278.15 K, m1 = 3.043	–	1839.8	33.22
278.15 K, m1 = 3.437	–	1881.6	59.47
278.15 K, m1 = 3.819	–	1903.6	–
278.15 K, m1 = 4.001	–	–	110.6
278.15 K, m1 = 4.547	–	1945.3	–
278.15 K, m1 = 4.563	–	–	234.4
283.15 K, m1 = 0.0414	–	1453.9	1.374
283.15 K, m1 = 0.0831	–	1464.2	1.423
283.15 K, m1 = 0.1671	–	1477	1.54
283.15 K, m1 = 0.4247	–	1522.7	1.954
283.15 K, m1 = 0.646	–	1553.8	2.444
283.15 K, m1 = 0.8751	–	1584.2	2.956
283.15 K, m1 = 1.106	–	1622.1	3.725
283.15 K, m1 = 1.354	–	1651.4	4.687
283.15 K, m1 = 1.608	–	1685.9	4.687
283.15 K, m1 = 1.866	–	1718.2	7.615
283.15 K, m1 = 2.134	–	1750.4	9.905
283.15 K, m1 = 2.411	–	1781.4	13.67
283.15 K, m1 = 2.622	–	1799.1	16.25
283.15 K, m1 = 3.043	–	1838.2	24.92
283.15 K, m1 = 3.437	–	1877.4	43.12
283.15 K, m1 = 3.819	–	1897.9	–
283.15 K, m1 = 4.001	–	–	77.03
283.15 K, m1 = 4.547	–	1936.1	–
283.15 K, m1 = 4.563	–	–	153.7
283.15 K, m1 = 4.929	–	–	208.4
283.15 K, m1 = 5.165	–	1964.1	–
288.15 K, m1 = 0.0414	–	1471.7	1.196
288.15 K, m1 = 0.0831	–	1481.5	1.238
288.15 K, m1 = 0.1671	–	1494.1	1.335
288.15 K, m1 = 0.4247	–	1535.1	1.677
288.15 K, m1 = 0.646	–	1566.5	2.072
288.15 K, m1 = 0.8751	–	1601.1	2.499
288.15 K, m1 = 1.106	–	1631.4	3.138
288.15 K, m1 = 1.354	–	1659.4	3.895
288.15 K, m1 = 1.608	–	1692.8	3.895
288.15 K, m1 = 1.866	–	1722.3	6.192
288.15 K, m1 = 2.134	–	1752.7	8.005
288.15 K, m1 = 2.411	–	1782.9	10.8
288.15 K, m1 = 2.622	–	1799.1	12.79
288.15 K, m1 = 3.043	–	1835.6	19.07
288.15 K, m1 = 3.437	–	1872.2	31.95
288.15 K, m1 = 3.819	–	1891.9	–
288.15 K, m1 = 4.001	–	–	55.77
288.15 K, m1 = 4.547	–	1927.4	–
288.15 K, m1 = 4.563	–	–	105.5
288.15 K, m1 = 4.929	–	–	140.3
288.15 K, m1 = 5.165	–	1953.3	–
293.15 K, m1 = 0.0414	–	1487.6	1.052
293.15 K, m1 = 0.0831	–	1497.5	1.089
293.15 K, m1 = 0.1671	–	1508.3	1.17
293.15 K, m1 = 0.4247	–	1545.4	1.461
293.15 K, m1 = 0.646	–	1577.8	1.788
293.15 K, m1 = 0.8751	–	1609.8	2.15
293.15 K, m1 = 1.106	–	1639.8	2.678
293.15 K, m1 = 1.354	–	1665.7	3.294
293.15 K, m1 = 1.608	–	1697.3	3.294
293.15 K, m1 = 1.866	–	1725.6	5.143
293.15 K, m1 = 2.134	–	1754.5	6.573
293.15 K, m1 = 2.411	–	1782.6	8.745
293.15 K, m1 = 2.622	–	1798.8	10.25
293.15 K, m1 = 3.043	–	1832.8	14.98
293.15 K, m1 = 3.437	–	1866.8	24.4
293.15 K, m1 = 3.819	–	1884.3	–
293.15 K, m1 = 4.001	–	–	41.34
293.15 K, m1 = 4.547	–	1917.4	–
293.15 K, m1 = 4.563	–	–	75.04
293.15 K, m1 = 4.929	–	–	97.76
293.15 K, m1 = 5.165	–	1940.8	–
293.15 K, m1 = 5.732	–	1954.7	–
294.9 K, m1 = 2.411	1149	–	–
295.15 K, m1 = 0.4247	1029.4	–	–
295.15 K, m1 = 0.8751	1059.6	–	–
295.4 K, m1 = 0.1671	1010.2	–	–
296 K, m1 = 1.354	1089.6	–	–
296.1 K, m1 = 1.866	1118.6	–	–
297.95 K, m1 = 2.411	1147.7	–	–
298.05 K, m1 = 1.106	1074.8	–	–
298.15 K, m1 = 0.0414	–	1501.7	0.9322
298.15 K, m1 = 0.0831	–	1510.4	0.964
298.15 K, m1 = 0.1671	–	1520.6	1.034
298.15 K, m1 = 0.4247	–	1556.9	1.286
298.15 K, m1 = 0.646	–	1587.3	1.566
298.15 K, m1 = 0.8751	–	1616.2	1.873
298.15 K, m1 = 1.106	–	1645.9	2.31
298.15 K, m1 = 1.354	–	1671.1	2.821
298.15 K, m1 = 1.608	–	1700.3	2.821
298.15 K, m1 = 1.866	–	1727.7	4.32
298.15 K, m1 = 2.134	–	1754.6	5.472
298.15 K, m1 = 2.411	–	1781.9	7.183
298.15 K, m1 = 2.622	–	1797.3	8.354
298.15 K, m1 = 3.043	–	1829.5	12.02
298.15 K, m1 = 3.437	–	1861.2	19.05
298.15 K, m1 = 3.819	–	1878	–
298.15 K, m1 = 4.001	–	–	31.38
298.15 K, m1 = 4.547	–	1908	–
298.15 K, m1 = 4.563	–	–	55
298.15 K, m1 = 4.929	–	–	70.36
298.15 K, m1 = 5.165	–	1929.7	–
298.15 K, m1 = 5.41	–	–	141.2
298.15 K, m1 = 5.732	–	1940.2	–
298.3 K, m1 = 3.043	1175	–	–
298.7 K, m1 = 2.134	1132.2	–	–
298.75 K, m1 = 0.0831	1003.1	–	–
298.8 K, m1 = 3.437	1195.5	–	–
298.85 K, m1 = 0.646	1044	–	–
298.95 K, m1 = 0.8751	1058.5	–	–
299.15 K, m1 = 0.4247	1028.4	–	–
299.2 K, m1 = 2.622	1155.8	–	–
299.3 K, m1 = 1.866	1117.5	–	–
299.55 K, m1 = 5.732	1267.4	–	–
299.6 K, m1 = 0.1671	1009.1	–	–
299.65 K, m1 = 1.354	1088.4	–	–
300.6 K, m1 = 1.608	1103.6	–	–
300.85 K, m1 = 0.0414	999.3	–	–
301 K, m1 = 2.411	1146.5	–	–
301.05 K, m1 = 3.043	1173.8	–	–
301.35 K, m1 = 1.327	1086.4	–	–
301.5 K, m1 = 3.437	1194.2	–	–
301.55 K, m1 = 2.134	1131.1	–	–
301.7 K, m1 = 1.106	1073.7	–	–
301.75 K, m1 = 5.732	1266	–	–
302.05 K, m1 = 2.622	1154.6	–	–
302.05 K, m1 = 3.819	1205.9	–	–
302.25 K, m1 = 0.646	1043	–	–
302.4 K, m1 = 1.866	1116.3	–	–
302.4 K, m1 = 5.165	1249.6	–	–
302.5 K, m1 = 0.0831	1002	–	–
302.55 K, m1 = 0.8751	1057.4	–	–
302.7 K, m1 = 1.354	1087.4	–	–
302.75 K, m1 = 0.4247	1027.2	–	–
302.95 K, m1 = 4.547	1229.9	–	–
303.15 K, m1 = 0.0414	–	1513.4	0.835
303.15 K, m1 = 0.0831	–	1521.5	0.8624
303.15 K, m1 = 0.1671	–	1532.2	0.9234
303.15 K, m1 = 0.4247	–	1567.4	1.141
303.15 K, m1 = 0.646	–	1595.7	1.383
303.15 K, m1 = 0.8751	–	1625.4	1.64
303.15 K, m1 = 1.106	–	1651.6	2.014
303.15 K, m1 = 1.354	–	1676.1	2.446
303.15 K, m1 = 1.608	–	1703	2.446
303.15 K, m1 = 1.866	–	1728.9	3.688
303.15 K, m1 = 2.134	–	1755.5	4.619
303.15 K, m1 = 2.411	–	1781.3	6.056
303.15 K, m1 = 2.622	–	1795.2	6.928
303.15 K, m1 = 3.043	–	1824.8	9.798
303.15 K, m1 = 3.437	–	1855.5	15.2
303.15 K, m1 = 3.819	–	1870.5	–
303.15 K, m1 = 4.001	–	–	24.27
303.15 K, m1 = 4.547	–	1899.1	–
303.15 K, m1 = 4.563	–	–	41.02
303.15 K, m1 = 4.929	–	–	51.77
303.15 K, m1 = 5.165	–	1919	–
303.15 K, m1 = 5.41	–	–	99.4
303.15 K, m1 = 5.732	–	1926.8	135.8
303.3 K, m1 = 0.1671	1008	–	–
303.65 K, m1 = 1.608	1102.5	–	–
303.75 K, m1 = 2.411	1145.4	–	–
303.75 K, m1 = 3.043	1172.5	–	–
303.75 K, m1 = 5.732	1264.8	–	–
303.9 K, m1 = 3.437	1193.1	–	–
304.4 K, m1 = 3.819	1204.7	–	–
304.45 K, m1 = 0.0414	998.24	–	–
304.55 K, m1 = 2.134	1129.8	–	–
304.6 K, m1 = 5.165	1248.3	–	–
304.7 K, m1 = 1.327	1085.2	–	–
304.8 K, m1 = 2.622	1153.3	–	–
304.95 K, m1 = 1.106	1072.5	–	–
305.35 K, m1 = 4.547	1228.6	–	–
